According to the supplement of paper PMC10307832:

Assays:
Experiment in all cases: relative viability (nuclei count vs DMSO), 5 days (fraction); higher = more cells survive
ABC-1 = tested on: ABC-1
Summary of the method: (§1)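 After 5 days of treatment, lung cancer cells in 1536-well plates were fixed and stained in a single step (final 0.05% Triton X-100, 1% formaldehyde, 1 ug/ml Hoechst) and their nuclei counted on 4× images. Treatment had been applied by pin tool the day after seeding as one drug alone or as a fixed anchor-drug dose with five library-drug doses (not always all listed) in √10 steps. Relative viability is the nuclei count of treated wells divided by that of vehicle wells, and values are medians of duplicate plates.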

CAL-12T = tested on: CAL-12T
Summary of the method: as §1

COR-L 105 = tested on: COR-L 105
Summary of the method: as §1

ChaGo-K-1 = tested on: ChaGo-K-1
Summary of the method: as §1

EMC-BAC-2 = tested on: EMC-BAC-2
Summary of the method: as §1

EPLC-272H = tested on: EPLC-272H
Summary of the method: as §1

HCC-15 = tested on: HCC-15
Summary of the method: as §1

HCC-78 = tested on: HCC-78
Summary of the method: as §1

HOP-62 = tested on: HOP-62
Summary of the method: as §1

LXF-289 = tested on: LXF-289
Summary of the method: as §1

NCI-H1666 = tested on: NCI-H1666
Summary of the method: as §1

NCI-H1755 = tested on: NCI-H1755
Summary of the method: as §1

NCI-H1915 = tested on: NCI-H1915
Summary of the method: as §1

NCI-H1975 = tested on: NCI-H1975
Summary of the method: as §1

NCI-H1993 = tested on: NCI-H1993
Summary of the method: as §1

NCI-H2023 = tested on: NCI-H2023
Summary of the method: as §1

NCI-H2085 = tested on: NCI-H2085
Summary of the method: as §1

NCI-H2126 = tested on: NCI-H2126
Summary of the method: as §1

NCI-H3122 = tested on: NCI-H3122
Summary of the method: as §1

NCI-H322M = tested on: NCI-H322M
Summary of the method: as §1

NCI-H358 = tested on: NCI-H358
Summary of the method: as §1

NCI-H441 = tested on: NCI-H441
Summary of the method: as §1

NCI-H522 = tested on: NCI-H522
Summary of the method: as §1

UMC-11 = tested on: UMC-11
Summary of the method: as §1

COc1cc(N2CCC(C(N)=O)CC2)ccc1Nc1nc(N)c(Cl)c(Nc2ccccc2S(=O)(=O)C(C)C)n1 [HG-5-88-01] + O=C(c1cc(Cc2n[nH]c(=O)c3ccccc23)ccc1F)N1CCN(C(=O)C2CC2)CC1 [Olaparib] (partner 8 µM)
relative viability (ABC-1; first compound 0.04 µM): 1
relative viability (ABC-1; first compound 0.1265 µM): 0.494
relative viability (ABC-1; first compound 0.4 µM): 0.688
relative viability (ABC-1; first compound 1.265 µM): 0.686
relative viability (ABC-1; first compound 4 µM): 0.589
relative viability (CAL-12T; first compound 0.04 µM): 0.733
relative viability (CAL-12T; first compound 0.1265 µM): 0.779
relative viability (CAL-12T; first compound 0.4 µM): 0.787
relative viability (CAL-12T; first compound 1.265 µM): 0.667
relative viability (CAL-12T; first compound 4 µM): 0.319
relative viability (COR-L 105; first compound 0.04 µM): 0.752
relative viability (COR-L 105; first compound 0.1265 µM): 0.765
relative viability (COR-L 105; first compound 0.4 µM): 0.708
relative viability (COR-L 105; first compound 1.265 µM): 0.692
relative viability (COR-L 105; first compound 4 µM): 0.683
relative viability (ChaGo-K-1; first compound 0.04 µM): 0.421
relative viability (ChaGo-K-1; first compound 0.1265 µM): 0.418
relative viability (ChaGo-K-1; first compound 0.4 µM): 0.455
relative viability (ChaGo-K-1; first compound 1.265 µM): 0.421
relative viability (ChaGo-K-1; first compound 4 µM): 0.393
relative viability (EMC-BAC-2; first compound 0.04 µM): 0.482
relative viability (EMC-BAC-2; first compound 0.1265 µM): 0.526
relative viability (EMC-BAC-2; first compound 0.4 µM): 0.615
relative viability (EMC-BAC-2; first compound 1.265 µM): 0.459
relative viability (EMC-BAC-2; first compound 4 µM): 0.46
relative viability (EPLC-272H; first compound 0.04 µM): 0.976
relative viability (EPLC-272H; first compound 0.1265 µM): 0.785
relative viability (EPLC-272H; first compound 0.4 µM): 0.959
relative viability (EPLC-272H; first compound 1.265 µM): 0.495
relative viability (EPLC-272H; first compound 4 µM): 0.0585
relative viability (HCC-15; first compound 0.04 µM): 0.738
relative viability (HCC-15; first compound 0.1265 µM): 0.616
relative viability (HCC-15; first compound 0.4 µM): 0.883
relative viability (HCC-15; first compound 1.265 µM): 0.707
relative viability (HCC-15; first compound 4 µM): 0.7
relative viability (HCC-78; first compound 0.04 µM): 0.868
relative viability (HCC-78; first compound 0.1265 µM): 0.664
relative viability (HCC-78; first compound 0.4 µM): 0.511
relative viability (HCC-78; first compound 1.265 µM): 0.302
relative viability (HCC-78; first compound 4 µM): 0.422
relative viability (HOP-62; first compound 0.04 µM): 0.426
relative viability (HOP-62; first compound 0.1265 µM): 0.511
relative viability (HOP-62; first compound 0.4 µM): 0.396
relative viability (HOP-62; first compound 1.265 µM): 0.538
relative viability (HOP-62; first compound 4 µM): 0.283
relative viability (LXF-289; first compound 0.04 µM): 0.988
relative viability (LXF-289; first compound 0.1265 µM): 1.13
relative viability (LXF-289; first compound 0.4 µM): 1.02
relative viability (LXF-289; first compound 1.265 µM): 1.07
relative viability (LXF-289; first compound 4 µM): 1.08
relative viability (NCI-H1666; first compound 0.04 µM): 0.759
relative viability (NCI-H1666; first compound 0.1265 µM): 0.737
relative viability (NCI-H1666; first compound 0.4 µM): 0.816
relative viability (NCI-H1666; first compound 1.265 µM): 0.771
relative viability (NCI-H1666; first compound 4 µM): 0.684
relative viability (NCI-H1755; first compound 0.04 µM): 0.811
relative viability (NCI-H1755; first compound 0.1265 µM): 0.869
relative viability (NCI-H1755; first compound 0.4 µM): 0.874
relative viability (NCI-H1755; first compound 1.265 µM): 0.849
relative viability (NCI-H1755; first compound 4 µM): 0.928
relative viability (NCI-H1915; first compound 0.04 µM): 0.259
relative viability (NCI-H1915; first compound 0.1265 µM): 0.25
relative viability (NCI-H1915; first compound 0.4 µM): 0.304
relative viability (NCI-H1915; first compound 1.265 µM): 0.266
relative viability (NCI-H1915; first compound 4 µM): 0.248
relative viability (NCI-H1975; first compound 0.04 µM): 0.834
relative viability (NCI-H1975; first compound 0.1265 µM): 0.822
relative viability (NCI-H1975; first compound 0.4 µM): 0.782
relative viability (NCI-H1975; first compound 1.265 µM): 0.715
relative viability (NCI-H1975; first compound 4 µM): 0.419
relative viability (NCI-H1993; first compound 0.04 µM): 1.12
relative viability (NCI-H1993; first compound 0.1265 µM): 1.03
relative viability (NCI-H1993; first compound 0.4 µM): 0.949
relative viability (NCI-H1993; first compound 4 µM): 0.842
relative viability (NCI-H2023; first compound 0.04 µM): 0.515
relative viability (NCI-H2023; first compound 0.1265 µM): 0.519
relative viability (NCI-H2023; first compound 0.4 µM): 0.445
relative viability (NCI-H2023; first compound 1.265 µM): 0.441
relative viability (NCI-H2023; first compound 4 µM): 0.277
relative viability (NCI-H2085; first compound 0.04 µM): 0.853
relative viability (NCI-H2085; first compound 0.1265 µM): 0.753
relative viability (NCI-H2085; first compound 0.4 µM): 0.833
relative viability (NCI-H2085; first compound 1.265 µM): 0.765
relative viability (NCI-H2085; first compound 4 µM): 0.871
relative viability (NCI-H2126; first compound 0.04 µM): 0.972
relative viability (NCI-H2126; first compound 0.1265 µM): 0.911
relative viability (NCI-H2126; first compound 0.4 µM): 0.939
relative viability (NCI-H2126; first compound 1.265 µM): 0.822
relative viability (NCI-H2126; first compound 4 µM): 0.872
relative viability (NCI-H3122; first compound 0.04 µM): 0.594
relative viability (NCI-H3122; first compound 0.1265 µM): 0.403
relative viability (NCI-H3122; first compound 0.4 µM): 0.3
relative viability (NCI-H3122; first compound 1.265 µM): 0.285
relative viability (NCI-H3122; first compound 4 µM): 0.15
relative viability (NCI-H322M; first compound 0.04 µM): 0.809
relative viability (NCI-H322M; first compound 0.1265 µM): 0.699
relative viability (NCI-H322M; first compound 0.4 µM): 0.913
relative viability (NCI-H322M; first compound 1.265 µM): 0.485
relative viability (NCI-H322M; first compound 4 µM): 0.686
relative viability (NCI-H358; first compound 0.04 µM): 0.569
relative viability (NCI-H358; first compound 0.1265 µM): 0.568
relative viability (NCI-H358; first compound 0.4 µM): 0.545
relative viability (NCI-H358; first compound 1.265 µM): 0.242
relative viability (NCI-H358; first compound 4 µM): 0.466
relative viability (NCI-H441; first compound 0.04 µM): 0.557
relative viability (NCI-H441; first compound 0.1265 µM): 0.639
relative viability (NCI-H441; first compound 0.4 µM): 0.701
relative viability (NCI-H441; first compound 1.265 µM): 0.574
relative viability (NCI-H441; first compound 4 µM): 0.434
relative viability (NCI-H522; first compound 0.04 µM): 0.724
relative viability (NCI-H522; first compound 0.1265 µM): 0.665
relative viability (NCI-H522; first compound 0.4 µM): 0.761
relative viability (NCI-H522; first compound 1.265 µM): 0.574
relative viability (NCI-H522; first compound 4 µM): 0.594
relative viability (UMC-11; first compound 0.04 µM): 0.35
relative viability (UMC-11; first compound 0.1265 µM): 0.399
relative viability (UMC-11; first compound 0.4 µM): 0.45
relative viability (UMC-11; first compound 1.265 µM): 0.428
relative viability (UMC-11; first compound 4 µM): 0.274
